According to patent US7473688B2, “Indolobenzazepine HCV NS5B inhibitors” (Bristol-Myers Squibb Company, priority 2005, dated 2009):
Like-named read-outs stand apart in the source and are kept apart here.

Assays:
HCV NS5B = molecular target: T1, HCV NS5B (Hepatitis C virus genotype 1b, UniProt Q9WMX2); test: HCV NS5B RdRp enzyme assay (preincubation protocol); type: biochemical
T1 construct: The protein was expressed with an 18 amino acid C-terminal truncation to enhance the solubility; made in house; host or cells: E. coli BL21 (DE3), pET21a
Procedure, shortened: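 Preincubation format: enzyme (14 nM, genotype 1b, 18-residue C-terminal truncation) meets diluted compound first; reaction started with bead-bound biotinylated dT12 primer, polyA template 0.2 nM and 0.29 μM 3H-UTP. Run 4 h, 30 °C in Hepes pH 7.5; scintillation proximity signal; IC50 fitted from seven inhibitor levels.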

HCV replicon = HCV replicon FRET assay; type: cell-based; conditions: Hepatitis C virus, FRET assay, read-out: EC50*
Procedure, shortened: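 HCV replicon cells, with or without Renilla luciferase reporter, incubated with titrated compounds at 37 °C; Alamar blue read for cytotoxicity. NS3 protease activity read from lysates with 20 μM EDANS/DABCYL FRET peptide (340/490 nm, kinetic), or by Dual-Glo luciferase. Background from highest protease-inhibitor wells; EC50 = 50% signal reduction.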

T1 sequence (Q9WMX2 2420-2992): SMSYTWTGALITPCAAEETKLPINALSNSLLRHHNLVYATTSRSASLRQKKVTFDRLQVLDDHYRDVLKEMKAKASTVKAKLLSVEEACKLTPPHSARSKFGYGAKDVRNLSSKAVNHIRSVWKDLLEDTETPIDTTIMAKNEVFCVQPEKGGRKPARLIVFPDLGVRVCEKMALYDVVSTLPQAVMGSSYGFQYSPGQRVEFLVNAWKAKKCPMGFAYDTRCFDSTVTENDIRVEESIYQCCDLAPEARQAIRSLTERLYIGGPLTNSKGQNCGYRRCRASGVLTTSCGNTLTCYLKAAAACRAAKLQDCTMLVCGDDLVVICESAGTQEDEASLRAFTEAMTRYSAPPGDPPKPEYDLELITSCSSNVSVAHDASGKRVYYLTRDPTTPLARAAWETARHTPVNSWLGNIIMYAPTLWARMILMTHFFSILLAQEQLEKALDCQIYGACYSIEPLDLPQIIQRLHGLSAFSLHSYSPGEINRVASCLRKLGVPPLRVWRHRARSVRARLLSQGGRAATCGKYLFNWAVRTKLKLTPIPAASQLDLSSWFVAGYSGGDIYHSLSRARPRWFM

| SMILES | IC50 (HCV NS5B; Table 1, read-out: IC50*) | EC50 (HCV replicon; Table 1) | IC50 (HCV NS5B; Table 1a, read-out: IC50*) | EC50 (HCV replicon; Table 1a) |
| --- | --- | --- | --- | --- |
| O=C(NS(=O)(=O)N1CCOCC1)c1ccc2c(C3CCCCC3)c3n(c2c1)CC(C(=O)N1CCOCC1)Cc1ccccc1-3 (stereo not drawn) | 10 to 1000 nM | 70 to 1000 nM | – | – |
| CN1CCN(S(=O)(=O)NC(=O)c2ccc3c(C4CCCCC4)c4n(c3c2)CC(C(=O)N2CCOCC2)=Cc2ccccc2-4)CC1 | 10 to 1000 nM | 70 to 1000 nM | – | – |
| O=C(NS(=O)(=O)N1CCOCC1)c1ccc2c(C3CCCCC3)c3n(c2c1)CC(C(=O)N1CCC(N2CCOCC2)CC1)=Cc1ccccc1-3 | 10 to 1000 nM | 70 to 1000 nM | – | – |
| C[C@@H]1CN(C(=O)C2=Cc3ccccc3-c3c(C4CCCCC4)c4ccc(C(=O)NS(=O)(=O)N5CCOCC5)cc4n3C2)C[C@H](C)O1 | 10 to 1000 nM | 70 to 1000 nM | – | – |
| CC(=O)N1CCN(C(=O)C2=Cc3ccccc3-c3c(C4CCCCC4)c4ccc(C(=O)NS(=O)(=O)N5CCOCC5)cc4n3C2)CC1 | 10 to 1000 nM | 70 to 1000 nM | – | – |
| COC(=O)C1=Cc2ccccc2-c2c(C3CCCCC3)c3ccc(C(=O)NS(=O)(=O)N4CCOCC4)cc3n2C1 | 10 to 1000 nM | 70 to 1000 nM | – | – |
| O=C1CCCN(C(=O)C2=Cc3ccccc3-c3c(C4CCCCC4)c4ccc(C(=O)O)cc4n3C2)N1 | 10 to 1000 nM | 1000 to 10000 nM | – | – |
| NC(=O)C1CCCN(C(=O)C2Cc3ccccc3-c3c(C4CCCCC4)c4ccc(C(=O)O)cc4n3C2)C1 (stereo not drawn) | 10 to 1000 nM | 1000 to 10000 nM | – | – |
| CN(C)S(=O)(=O)NC(=O)c1ccc2c(C3CCCCC3)c3n(c2c1)CC(C(=O)N1CCCC(F)C1)=Cc1ccccc1-3 (stereo not drawn) | 10 to 1000 nM | 70 to 1000 nM | – | – |
| CN(C)S(=O)(=O)NC(=O)c1ccc2c(C3CCCCC3)c3n(c2c1)CC(C(=O)N1CCC(N2CCCC(F)C2)CC1)=Cc1ccccc1-3 (stereo not drawn) | 10 to 1000 nM | 70 to 1000 nM | – | – |
| CN(C)S(=O)(=O)NC(=O)c1ccc2c(C3CCCCC3)c3n(c2c1)CC(C(=O)N1CCC(N2CCCC(F)(F)C2)CC1)=Cc1ccccc1-3 | 10 to 1000 nM | 70 to 1000 nM | – | – |
| CN(C)S(=O)(=O)NC(=O)c1ccc2c(C3CCCCC3)c3n(c2c1)CC(C(=O)N1CC[C@@H](F)C1)=Cc1ccccc1-3 | 10 to 1000 nM | 70 to 1000 nM | – | – |
| CN(C)S(=O)(=O)NC(=O)c1ccc2c(C3CCCCC3)c3n(c2c1)CC(C(=O)N1CC[C@H](F)C1)=Cc1ccccc1-3 | 10 to 1000 nM | 70 to 1000 nM | – | – |
| CN(C)S(=O)(=O)NC(=O)c1ccc2c(C3CCCCC3)c3n(c2c1)CC(C(=O)N1CCC(N2CC[C@@H](F)C2)CC1)=Cc1ccccc1-3 | 10 to 1000 nM | 70 to 1000 nM | – | – |
| CN(C)S(=O)(=O)NC(=O)c1ccc2c(C3CCCCC3)c3n(c2c1)CC(C(=O)N1CCC(N2CC[C@H](F)C2)CC1)=Cc1ccccc1-3 | 10 to 1000 nM | 70 to 1000 nM | – | – |
| CN(C)S(=O)(=O)NC(=O)c1ccc2c(C3CCCCC3)c3n(c2c1)CC(C(=O)N1CCC(N2CCC(F)CC2)CC1)=Cc1ccccc1-3 | 10 to 1000 nM | 70 to 1000 nM | – | – |
| CN(C)S(=O)(=O)NC(=O)c1ccc2c(C3CCCCC3)c3n(c2c1)CC(C(=O)N1CCCC(C(N)=O)C1)=Cc1ccccc1-3 (stereo not drawn) | 10 to 1000 nM | 70 to 1000 nM | – | – |
| O=C(O)c1ccc2c(C3CCCCC3)c3n(c2c1)C/C(=N/O)Cc1ccccc1-3 | 10 to 1000 nM | 1000 to 10000 nM | – | – |
| COC(=O)c1ccc2c(C3CCCCC3)c3n(c2c1)CC(NC(=O)N1C[C@@H](C)O[C@@H](C)C1)Cc1cc(OC)ccc1-3 (stereo partly drawn) | – | – | 10 to 1000 nM | 30 to 1000 nM |
| COc1ccc2c(c1)C=C(C(=O)N1CCC(C(=O)N3CCOCC3)CC1)Cn1c-2c(C2CCCCC2)c2ccc(C(=O)NS(=O)(=O)N(C)C)cc21 | – | – | 10 to 1000 nM | 30 to 1000 nM |
| COc1ccc2c(c1)C=C(C(=O)N1CCOC(CNC(C)=O)C1)Cn1c-2c(C2CCCCC2)c2ccc(C(=O)NS(=O)(=O)N(C)C)cc21 (stereo not drawn) | – | – | < 20 nM | 30 to 1000 nM |
| COc1ccc2c(c1)C=C(C(=O)N1C[C@@H](C)N(C(C)=O)[C@@H](C)C1)Cn1c-2c(C2CCCCC2)c2ccc(C(=O)NS(=O)(=O)N(C)C)cc21 | – | – | 10 to 1000 nM | 30 to 1000 nM |
| COc1ccc(-c2[nH]c3cc(C(=O)NS(=O)(=O)N(C)C)ccc3c2C2CCCCC2)c(C(=O)N(C)CC(=O)N(C)C)c1 | – | – | 10 to 1000 nM | 30 to 1000 nM |
| CC(=O)NN(C)C(=O)C1Cc2ccccc2-c2c(C3CCCCC3)c3ccc(C(=O)NS(=O)(=O)N(C)C)cc3n2C1 (stereo not drawn) | – | – | 10 to 1000 nM | 30 to 1000 nM |
| COc1ccc2c(c1)C=C(C(=O)N(C)C[C@@H]1CCCO1)Cn1c-2c(C2CCCCC2)c2ccc(C(=O)NS(=O)(=O)N(C)C)cc21 | – | – | 10 to 1000 nM | 30 to 1000 nM |
| COc1ccc2c(c1)C=C(C(=O)N(C)C[C@@H]1CCCO1)Cn1c-2c(C2CCCCC2)c2ccc(C(=O)O)cc21 | – | – | 10 to 1000 nM | 1000 to 10000 nM |
| CCOC(=O)[C@H]1C[C@@H](O)CN1C(=O)C1=Cc2cc(OC)ccc2-c2c(C3CCCCC3)c3ccc(C(=O)NS(=O)(=O)N(C)C)cc3n2C1 | – | – | < 20 nM | 30 to 1000 nM |
